Test results from patent US7880007B2, “Bicyclic substituted phenyl piperidine modulators of muscarinic receptors” (Vertex Pharmaceuticals Incorporated, priority 2004, dated 2011).

Legend:
Assay type in all cases: cell-based
[1] = target: T1, M2 muscarinic receptor (Homo sapiens, UniProt P08172); experiment: Functional mobilization of intracellular calcium (FLIPR), M2-CHO cells; details: for Emax: 100% efficacy = maximum response obtained with the Carbachol control; for M2 Activity: M2-CHO cells, calcium mobilization (FLIPR)
T1 construct: expressed in transfected cells; host or cells: CHO (M2-CHO)
T1 sequence (P08172 1-466): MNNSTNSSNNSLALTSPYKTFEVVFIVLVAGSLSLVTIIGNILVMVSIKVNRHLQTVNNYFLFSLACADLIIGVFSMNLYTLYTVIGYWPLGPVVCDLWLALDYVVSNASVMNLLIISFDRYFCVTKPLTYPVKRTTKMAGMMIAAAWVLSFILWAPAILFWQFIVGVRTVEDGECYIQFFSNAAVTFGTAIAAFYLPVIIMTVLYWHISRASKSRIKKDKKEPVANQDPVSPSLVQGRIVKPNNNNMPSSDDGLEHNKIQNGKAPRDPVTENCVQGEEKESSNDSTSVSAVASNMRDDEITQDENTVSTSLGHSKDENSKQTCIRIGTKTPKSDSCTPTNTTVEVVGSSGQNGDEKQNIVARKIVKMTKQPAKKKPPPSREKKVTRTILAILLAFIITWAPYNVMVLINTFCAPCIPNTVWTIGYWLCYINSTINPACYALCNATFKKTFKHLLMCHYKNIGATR
In short: (§1)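 CHO cells expressing human M1–M4 receptors loaded with Fluo-3 AM or Calcium 3 dye (1 mM probenecid, pH 7.4); 0.5% DMSO final. Agonist mode: compound added directly; antagonist mode: 15 min pre-incubation or co-application, then carbachol at EC80. Fluorescence read 60 s on FLIPR; efficacy relative to carbachol maximum.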

[2] = target: T2, M3 muscarinic receptor (Homo sapiens, UniProt P20309); experiment: Functional mobilization of intracellular calcium (FLIPR), M3-CHO cells; details: for Emax: 100% efficacy = maximum response obtained with the Carbachol control; for M3 Activity: M3-CHO cells, calcium mobilization (FLIPR)
T2 construct: expressed in transfected cells; host or cells: CHO (M3-CHO)
In short: as §1

[3] = target: T3, M4 muscarinic receptor (Homo sapiens, UniProt P08173); experiment: Functional mobilization of intracellular calcium (FLIPR), M4-CHO cells; details: for Emax: 100% efficacy = maximum response obtained with the Carbachol control; for M4 Activity: M4-CHO cells, calcium mobilization (FLIPR)
T3 construct: expressed in transfected cells; host or cells: CHO (M4-CHO)
T3 sequence (P08173 1-479): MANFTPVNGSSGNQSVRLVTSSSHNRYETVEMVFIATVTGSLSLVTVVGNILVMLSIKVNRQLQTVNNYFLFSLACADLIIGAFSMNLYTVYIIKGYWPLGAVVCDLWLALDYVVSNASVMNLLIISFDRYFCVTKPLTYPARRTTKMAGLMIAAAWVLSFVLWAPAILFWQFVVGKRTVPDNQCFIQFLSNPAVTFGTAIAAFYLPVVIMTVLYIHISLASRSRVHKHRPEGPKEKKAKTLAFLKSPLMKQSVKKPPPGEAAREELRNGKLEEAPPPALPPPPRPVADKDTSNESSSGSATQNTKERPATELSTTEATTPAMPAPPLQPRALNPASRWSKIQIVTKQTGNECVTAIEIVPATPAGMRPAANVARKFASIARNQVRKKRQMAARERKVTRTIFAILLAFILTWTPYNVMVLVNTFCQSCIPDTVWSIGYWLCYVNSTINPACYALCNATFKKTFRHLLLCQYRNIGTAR
In short: as §1

[4] = target: T4, M1 muscarinic receptor (Homo sapiens, UniProt P11229); experiment: Functional mobilization of intracellular calcium (FLIPR), M1-CHO cells; details: for Emax: 100% efficacy = maximum response obtained with the Carbachol control; for M1 Activity: M1-CHO cells, calcium mobilization (FLIPR)
T4 construct: expressed in transfected cells; host or cells: CHO (M1-CHO)
T4 sequence (P11229 1-460): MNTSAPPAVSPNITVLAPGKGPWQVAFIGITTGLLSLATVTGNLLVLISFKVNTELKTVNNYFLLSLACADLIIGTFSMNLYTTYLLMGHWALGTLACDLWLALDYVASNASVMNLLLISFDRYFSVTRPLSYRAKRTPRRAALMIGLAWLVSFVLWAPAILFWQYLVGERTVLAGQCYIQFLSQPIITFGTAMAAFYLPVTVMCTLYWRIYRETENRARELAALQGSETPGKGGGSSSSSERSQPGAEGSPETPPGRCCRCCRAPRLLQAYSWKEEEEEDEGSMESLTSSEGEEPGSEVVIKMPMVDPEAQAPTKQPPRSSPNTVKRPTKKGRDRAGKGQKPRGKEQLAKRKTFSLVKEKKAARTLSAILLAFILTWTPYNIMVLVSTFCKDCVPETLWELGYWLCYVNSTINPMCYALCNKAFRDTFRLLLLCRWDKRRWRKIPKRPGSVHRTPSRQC
In short: as §1

T2 sequence (P20309 whole entry): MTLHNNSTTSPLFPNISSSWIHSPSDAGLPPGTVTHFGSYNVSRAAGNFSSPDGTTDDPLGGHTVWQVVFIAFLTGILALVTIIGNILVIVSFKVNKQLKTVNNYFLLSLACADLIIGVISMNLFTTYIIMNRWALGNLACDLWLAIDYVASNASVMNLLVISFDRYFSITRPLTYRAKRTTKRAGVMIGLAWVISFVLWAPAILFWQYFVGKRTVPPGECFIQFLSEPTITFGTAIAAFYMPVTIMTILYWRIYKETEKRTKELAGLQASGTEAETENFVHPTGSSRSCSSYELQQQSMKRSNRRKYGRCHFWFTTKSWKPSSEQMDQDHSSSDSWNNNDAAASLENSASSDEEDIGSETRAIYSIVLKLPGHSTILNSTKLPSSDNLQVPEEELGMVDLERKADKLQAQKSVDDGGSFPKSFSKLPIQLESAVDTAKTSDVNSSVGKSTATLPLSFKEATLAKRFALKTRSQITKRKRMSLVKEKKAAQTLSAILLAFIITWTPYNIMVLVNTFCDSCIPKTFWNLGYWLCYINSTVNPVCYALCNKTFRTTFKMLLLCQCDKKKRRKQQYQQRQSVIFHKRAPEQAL

Row | Compound | Emax [1] [%] | M2 Activity [1] | Emax [2] [%] | M3 Activity [2] | Emax [3] [%] | M4 Activity [3] | Emax [4] [%] | M1 Activity [4]
1 | COc1ccc(-c2ccccc2)cc1C1CCN([C@H]2C[C@H]3CC[C@H]2C3)CC1 [Compound 168] | < 25 | + (activity was measured to be greater than 5.0 μM) | < 25 | + (activity was measured to be greater than 5.0 μM) | 25 to 100 | + (activity was measured to be greater than 5.0 μM) | < 25 | + (activity was measured to be greater than 5.0 μM)
2 | COc1ccccc1C1CCN(C2CC3CCC(C3)C2)CC1 (centres unmarked) [Compound 169] | < 25 | + (activity was measured to be greater than 5.0 μM) | < 25 | + (activity was measured to be greater than 5.0 μM) | 25 to 100 | +++ (activity was measured to be less than 1.0 μM) | 25 to 100 | ++ (activity was measured to be from 1.0 μM to 5.0 μM)
3 | O=C(COc1ccccc1C1CCN([C@H]2C[C@H]3CC[C@H]2C3)CC1)c1ccccc1Cl [Compound 170] | < 25 | + (activity was measured to be greater than 5.0 μM) | < 25 | + (activity was measured to be greater than 5.0 μM) | 25 to 100 | +++ (activity was measured to be less than 1.0 μM) | < 25 | + (activity was measured to be greater than 5.0 μM)
4 | Cc1ccccc1C1(O)CCN(CC2CC3C=CC2C3)CC1 (centres unmarked) [Compound 171] | < 25 | + (activity was measured to be greater than 5.0 μM) | – | + (activity was measured to be greater than 5.0 μM) | 25 to 100 | +++ (activity was measured to be less than 1.0 μM) | 25 to 100 | ++ (activity was measured to be from 1.0 μM to 5.0 μM)
5 | COc1ccc(-c2ccc(CC#N)cc2)cc1C1CCN(C2CC3CCC(C3)C2)CC1 (centres unmarked) [Compound 173] | < 25 | + (activity was measured to be greater than 5.0 μM) | < 25 | + (activity was measured to be greater than 5.0 μM) | 25 to 100 | + (activity was measured to be greater than 5.0 μM) | < 25 | + (activity was measured to be greater than 5.0 μM)
6 | COc1ccc(Cl)c(C2CCN(C3C[C@H]4CC[C@H]3C4)CC2)c1 (some centres unmarked) [Compound 174] | < 25 | + (activity was measured to be greater than 5.0 μM) | < 25 | + (activity was measured to be greater than 5.0 μM) | < 25 | + (activity was measured to be greater than 5.0 μM) | < 25 | + (activity was measured to be greater than 5.0 μM)
7 | COc1ccccc1C1CCN(C2CCC(C3CCCCC3)CC2)CC1 (centres unmarked) [Compound 175] | < 25 | + (activity was measured to be greater than 5.0 μM) | < 25 | + (activity was measured to be greater than 5.0 μM) | < 25 | + (activity was measured to be greater than 5.0 μM) | < 25 | + (activity was measured to be greater than 5.0 μM)
8 | COc1ccc(F)cc1C1CCN(C2CCCCCC2)CC1 [Compound 176] | 25 to 100 | ++ (activity was measured to be from 1.0 μM to 5.0 μM) | < 25 | + (activity was measured to be greater than 5.0 μM) | 25 to 100 | +++ (activity was measured to be less than 1.0 μM) | 25 to 100 | +++ (activity was measured to be less than 1.0 μM)
9 | CCOC(=O)N1CCC(CN2CCC(c3cc(OC)cc(F)c3F)CC2)CC1 [Compound 177] | < 25 | + (activity was measured to be greater than 5.0 μM) | < 25 | + (activity was measured to be greater than 5.0 μM) | 25 to 100 | +++ (activity was measured to be less than 1.0 μM) | 25 to 100 | +++ (activity was measured to be less than 1.0 μM)
10 | COc1ccc(-c2ccccc2Cl)cc1C1CCN([C@H]2C[C@H]3CC[C@H]2C3)CC1 [Compound 178] | < 25 | + (activity was measured to be greater than 5.0 μM) | < 25 | + (activity was measured to be greater than 5.0 μM) | 25 to 100 | + (activity was measured to be greater than 5.0 μM) | < 25 | + (activity was measured to be greater than 5.0 μM)
11 | CCOC(=O)N1C2CCC1CC(N1CCC(c3ccc(F)cc3OC)CC1)C2 (centres unmarked) [Compound 179] | < 25 | + (activity was measured to be greater than 5.0 μM) | < 25 | + (activity was measured to be greater than 5.0 μM) | 25 to 100 | +++ (activity was measured to be less than 1.0 μM) | 25 to 100 | +++ (activity was measured to be less than 1.0 μM)
12 | Cc1ccccc1C1CCN(C2CC3CCC2C3)CC1 (centres unmarked) [Compound 180] | < 25 | + (activity was measured to be greater than 5.0 μM) | < 25 | + (activity was measured to be greater than 5.0 μM) | 25 to 100 | +++ (activity was measured to be less than 1.0 μM) | 25 to 100 | ++ (activity was measured to be from 1.0 μM to 5.0 μM)
13 | COc1ccc(Cl)cc1C1CCN(C2CCCCCC2)CC1 [Compound 181] | 25 to 100 | ++ (activity was measured to be from 1.0 μM to 5.0 μM) | < 25 | + (activity was measured to be greater than 5.0 μM) | 25 to 100 | +++ (activity was measured to be less than 1.0 μM) | 25 to 100 | ++ (activity was measured to be from 1.0 μM to 5.0 μM)
14 | FC(F)(F)Oc1ccccc1C1CCN([C@H]2C[C@H]3CC[C@H]2C3)CC1 [Compound 183] | < 25 | + (activity was measured to be greater than 5.0 μM) | < 25 | + (activity was measured to be greater than 5.0 μM) | 25 to 100 | +++ (activity was measured to be less than 1.0 μM) | 25 to 100 | + (activity was measured to be greater than 5.0 μM)
15 | COc1ccc(-c2ccc(C(=O)NCCCO)cc2)cc1C1CCN(C2CCOCC2)CC1 [Compound 184] | < 25 | + (activity was measured to be greater than 5.0 μM) | < 25 | + (activity was measured to be greater than 5.0 μM) | < 25 | + (activity was measured to be greater than 5.0 μM) | < 25 | + (activity was measured to be greater than 5.0 μM)
